Values joined by “and” are separate entries in the source; they are usually repeats but may differ in a detail not shown here. Equal entries are not always repeated. Strand notation (5' to 3'): a small letter for the sugar, then the base; units joined by * are phosphorothioate-linked, units joined directly phosphodiester-linked; [ ] holds rarer units or linkages, { } end groups; capitals alone tell only the bases. k = constrained ethyl (cEt); [5mC] = 5-methylcytosine; d = 2'-deoxy (DNA)
Tested on: human SMAD7 mRNA
Assay: Antisense inhibition of human SMAD7 mRNA expression in Hep3B cells by 3-10-3 cEt gapmers, 10,000 nM, electroporation (Example 2)
Format: cell-based
Conditions: Hep3B cells, electroporation with 10,000 nM antisense oligonucleotide, approximately 24 hours, primer probe set RTS5062, relative to untreated control cells
How it was run: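 Hep3B cells (20,000/well) were electroporated with 10,000 nM 3-10-3 cEt gapmer (16-mer, phosphorothioate, 5-methylcytosines) and harvested after about 24 h. SMAD7 mRNA quantified by RT-qPCR with primer probe set RTS5062, normalized to total RNA by RiboGreen; percent inhibition relative to untreated cells.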

Substance | % Inhibition [%] | % inhibition of SMAD7 mRNA expression
799041 (kG*kG*k[5mC]*dA*dG*d[5mC]*dT*dG*d[5mC]*dT*dG*dG*dG*kA*k[5mC]*k[5mC]; antisense) [compound 799041] | 22 | 
799042 (kT*kG*k[5mC]*dT*d[5mC]*d[5mC]*dT*dG*dG*d[5mC]*dA*dG*d[5mC]*kT*kG*k[5mC]; antisense) [compound 799042] | 33 | 
799043 (kA*kG*k[5mC]*d[5mC]*dG*dT*dG*d[5mC]*dT*d[5mC]*d[5mC]*dT*dG*kG*k[5mC]*kA; antisense) [compound 799043] |  | 0% and 10%
799044 (k[5mC]*kA*kG*dA*dG*d[5mC]*d[5mC]*dG*dT*dG*d[5mC]*dT*d[5mC]*k[5mC]*kT*kG; antisense) [compound 799044] |  | 0%
799045 (kG*kG*kA*d[5mC]*dA*dG*dA*dG*d[5mC]*d[5mC]*dG*dT*dG*k[5mC]*kT*k[5mC]; antisense) [compound 799045] |  | 37%
799046 (antisense kG*kG*k[5mC]*dT*dT*dT*d[5mC]*d[5mC]*d[5mC]*dA*dG*dG*d[5mC]*kT*kG*kG) [compound 799046] |  | 0%
799047 (antisense kT*kT*kG*dA*dT*dG*dA*dG*dG*dG*dA*dG*dA*kG*kG*kA) [compound 799047] |  | 63%
799048 (antisense kT*k[5mC]*k[5mC]*dT*dT*dG*dA*dT*dG*dA*dG*dG*dG*kA*kG*kA) [compound 799048] |  | 60%
799049 (antisense kG*k[5mC]*k[5mC]*d[5mC]*dG*dT*dG*dT*d[5mC]*d[5mC]*dT*dT*dG*kA*kT*kG) [compound 799049] |  | 44%
799050 (antisense kA*k[5mC]*kA*dG*dG*d[5mC]*d[5mC]*d[5mC]*dG*dT*dG*dT*d[5mC]*k[5mC]*kT*kT) [compound 799050] |  | 36%
799051 (antisense kT*kG*kG*dA*d[5mC]*dA*dG*dG*d[5mC]*d[5mC]*d[5mC]*dG*dT*kG*kT*k[5mC]) [compound 799051] |  | 32%
799052 (antisense k[5mC]*kT*kG*dT*dG*dG*dA*d[5mC]*dA*dG*dG*d[5mC]*d[5mC]*k[5mC]*kG*kT) [compound 799052] |  | 40%
799053 (antisense kA*kG*k[5mC]*d[5mC]*dT*dG*dT*dG*dG*dA*d[5mC]*dA*dG*kG*k[5mC]*k[5mC]) [compound 799053] | 0 | 
799054 (antisense k[5mC]*kA*kG*dA*dA*dG*d[5mC]*d[5mC]*dT*dG*dT*dG*dG*kA*k[5mC]*kA) [compound 799054] | 15 | 
799055 (antisense kG*k[5mC]*kT*d[5mC]*dA*dG*dA*dA*dG*d[5mC]*d[5mC]*dT*dG*kT*kG*kG) [compound 799055] | 19 | 
799056 (antisense k[5mC]*kG*k[5mC]*dT*dG*d[5mC]*dT*d[5mC]*dA*dG*dA*dA*dG*k[5mC]*k[5mC]*kT) [compound 799056] | 28 | 
799057 (antisense kG*kG*k[5mC]*dT*d[5mC]*dG*d[5mC]*dT*dG*d[5mC]*dT*d[5mC]*dA*kG*kA*kA) [compound 799057] | 0 | 
799058 (antisense kA*kG*k[5mC]*dA*dG*dG*d[5mC]*dT*d[5mC]*dG*d[5mC]*dT*dG*k[5mC]*kT*k[5mC]) [compound 799058] | 0 | 
799059 (antisense kA*k[5mC]*kT*dA*dG*d[5mC]*dA*dG*dG*d[5mC]*dT*d[5mC]*dG*k[5mC]*kT*kG) [compound 799059] | 18 | 
799060 (antisense kG*k[5mC]*k[5mC]*dA*d[5mC]*dT*dA*dG*d[5mC]*dA*dG*dG*d[5mC]*kT*k[5mC]*kG) [compound 799060] | 37 | 
799061 (antisense kT*kT*k[5mC]*dG*dG*d[5mC]*d[5mC]*dA*d[5mC]*dT*dA*dG*d[5mC]*kA*kG*kG) [compound 799061] | 45 | 
799062 (antisense k[5mC]*kT*kG*dG*dT*dT*d[5mC]*dG*dG*d[5mC]*d[5mC]*dA*d[5mC]*kT*kA*kG) [compound 799062] | 45 | 
799063 (antisense kT*kG*kG*dT*dT*d[5mC]*dT*dG*dG*dT*dT*d[5mC]*dG*kG*k[5mC]*k[5mC]) [compound 799063] |  | 9%
799064 (antisense kT*kA*kA*dT*dT*dG*dG*dT*dT*d[5mC]*dT*dG*dG*kT*kT*k[5mC]) [compound 799064] |  | 47%
799065 (antisense kA*kA*kA*dT*dA*dA*dT*dT*dG*dG*dT*dT*d[5mC]*kT*kG*kG) [compound 799065] |  | 35%

Substance | % Inhibition [%] | % inhibition of SMAD7 mRNA expression
799066 (antisense kT*kG*kA*dA*dA*dA*dT*dA*dA*dT*dT*dG*dG*kT*kT*k[5mC]) [compound 799066] |  | 0%
799068 (antisense kG*kA*k[5mC]*dA*dA*dG*dG*dA*dT*dG*dA*dA*dA*kA*kT*kA) [compound 799068] |  | 49%
799069 (antisense kA*kT*kA*dA*dG*dA*d[5mC]*dA*dA*dG*dG*dA*dT*kG*kA*kA) [compound 799069] |  | 18%
799071 (antisense kG*kG*kA*dA*dG*dG*dG*dA*dA*dT*dA*dA*dG*kA*k[5mC]*kA) [compound 799071] |  | 44%
799072 (antisense kG*k[5mC]*kA*dG*dG*dA*dA*dG*dG*dG*dA*dA*dT*kA*kA*kG) [compound 799072] |  | 55%
799073 (antisense k[5mC]*kG*k[5mC]*dT*dA*d[5mC]*dA*dA*dT*dG*dG*d[5mC]*dA*kG*kG*kG) [compound 799073] | 34 | 
799074 (antisense k[5mC]*kA*kA*dA*dA*dA*dA*dG*dA*dA*dA*dG*dA*k[5mC]*kG*k[5mC]) [compound 799074] | 9 | 
799075 (antisense kA*kG*kA*dT*dG*dG*d[5mC]*d[5mC]*dA*dA*dA*dA*dA*kA*kG*kA) [compound 799075] | 0 | 
799076 (antisense kA*kG*k[5mC]*dA*dG*dA*dT*dG*dG*d[5mC]*d[5mC]*dA*dA*kA*kA*kA) [compound 799076] | 34 | 
799077 (antisense k[5mC]*kA*kG*dG*dA*dG*d[5mC]*dA*dG*dA*dT*dG*dG*k[5mC]*k[5mC]*kA) [compound 799077] | 28 | 
799078 (antisense kA*kT*k[5mC]*d[5mC]*dA*dG*dG*dA*dG*d[5mC]*dA*dG*dA*kT*kG*kG) [compound 799078] | 19 | 
799079 (antisense kG*kA*kG*dA*dT*d[5mC]*d[5mC]*dA*dG*dG*dA*dG*d[5mC]*kA*kG*kA) [compound 799079] | 46 | 
799080 (antisense kA*kG*kG*dG*dA*dG*dA*dT*d[5mC]*d[5mC]*dA*dG*dG*kA*kG*k[5mC]) [compound 799080] | 56 | 
799081 (antisense kT*k[5mC]*kT*d[5mC]*dA*dG*dG*dG*dA*dG*dA*dT*d[5mC]*k[5mC]*kA*kG) [compound 799081] | 28 | 
799082 (antisense kG*k[5mC]*k[5mC]*d[5mC]*dA*dT*d[5mC]*dT*d[5mC]*dA*dG*dG*dG*kA*kG*kA) [compound 799082] | 27 | 
799083 (antisense kG*kG*kA*dA*dG*d[5mC]*d[5mC]*d[5mC]*dA*dT*d[5mC]*dT*d[5mC]*kA*kG*kG) [compound 799083] |  | 0%
799084 (antisense k[5mC]*kT*kT*dG*dG*dG*dA*dA*dG*d[5mC]*d[5mC]*d[5mC]*dA*kT*k[5mC]*kT) [compound 799084] |  | 0%
799085 (antisense kG*k[5mC]*k[5mC]*d[5mC]*dT*dT*dG*dG*dG*dA*dA*dG*d[5mC]*k[5mC]*k[5mC]*kA) [compound 799085] |  | 10%
799086 (antisense kG*kG*k[5mC]*dA*dG*d[5mC]*d[5mC]*d[5mC]*dT*dT*dG*dG*dG*kA*kA*kG) [compound 799086] |  | 0%
799087 (antisense k[5mC]*k[5mC]*k[5mC]*d[5mC]*dG*dG*d[5mC]*dA*dG*d[5mC]*d[5mC]*d[5mC]*dT*kT*kG*kG) [compound 799087] |  | 69%
799088 (antisense kG*k[5mC]*kT*dG*d[5mC]*d[5mC]*d[5mC]*d[5mC]*dG*dG*d[5mC]*dA*dG*k[5mC]*k[5mC]*k[5mC]) [compound 799088] |  | 24%
799090 (antisense kG*kT*kG*dA*dG*d[5mC]*dA*dA*dT*dA*d[5mC]*dT*dG*kT*kG*kA) [compound 799090] |  | 49%
799091 (antisense kA*k[5mC]*kT*dG*dG*dG*dT*dG*dA*dG*d[5mC]*dA*dA*kT*kA*k[5mC]) [compound 799091] |  | 42%
799092 (antisense kG*kG*k[5mC]*dA*d[5mC]*dT*dG*dG*dG*dT*dG*dA*dG*k[5mC]*kA*kA) [compound 799092] |  | 30%
799093 (antisense kG*kT*k[5mC]*dA*d[5mC]*d[5mC]*dA*dG*dG*dG*d[5mC]*dA*dG*kG*k[5mC]*kA) [compound 799093] | 47 | 

From patent US10517889B2, “Modulators of SMAD7 expression” (Ionis Pharmaceuticals, Inc., priority 2017, dated 2019)
